Key:
Escherichia coli [1] = assay: Antibacterial activity against Escherichia coli MG1655 harboring pRecA-lux assessed as maximum induction factor at 10^-10 M after 120 mins by luminometric analysis; format: functional, K-12 substr. MG1655
Escherichia coli [2] = assay: Antibacterial activity against Escherichia coli MG1655 harboring pIbpA-lux assessed as maximum induction factor at 10^-12 M after 120 mins by luminometric analysis; format: functional, K-12 substr. MG1655
[3] = Activation of quorum sensing system luxR in Escherichia coli MG1655 harboring pVFR1-lux assessed as maximum induction factor at 10^-5 M after 120 mins by luminometric analysis; settings: Escherichia coli str. K-12 substr. MG1655
[4] = Activation of quorum sensing system luxR in Escherichia coli MG1655 harboring pVFR1-lux assessed as maximum induction factor at 10^-10 M after 120 mins by luminometric analysis; settings: Escherichia coli str. K-12 substr. MG1655
Escherichia coli [5] = assay: Antibacterial activity against Escherichia coli MG1655 harboring pSoxS-lux assessed as maximum induction factor at 10^-14 M after 120 mins by luminometric analysis; format: functional, K-12 substr. MG1655
Escherichia coli [6] = assay: Antibacterial activity against Escherichia coli MG1655 harboring pGrpE-lux assessed as maximum induction factor at 10^-8 M after 120 mins by luminometric analysis; format: functional, K-12 substr. MG1655
Escherichia coli [7] = assay: Antibacterial activity against Escherichia coli MG1655 harboring pKatG-lux assessed as maximum induction factor at 10^-13 M after 120 mins by luminometric analysis; format: functional, K-12 substr. MG1655
Escherichia coli [8] = assay: Antibacterial activity against Escherichia coli MG1655 harboring pGrpE-lux assessed as maximum induction factor at 10^-11 M after 120 mins by luminometric analysis; format: functional, K-12 substr. MG1655
Escherichia coli [9] = assay: Antibacterial activity against Escherichia coli MG1655 harboring pXen7 assessed as toxicity index at 10^-8 M measured for 2 hrs by luminometric analysis; format: functional, K-12 substr. MG1655
Escherichia coli [10] = assay: Antibacterial activity against Escherichia coli MG1655 harboring pKatG-lux assessed as maximum induction factor at 10^-8 M after 120 mins by luminometric analysis; format: functional, K-12 substr. MG1655
Escherichia coli [11] = assay: Antibacterial activity against Escherichia coli MG1655 harboring pColD-lux assessed as maximum induction factor at 10^-4 M after 120 mins by luminometric analysis; format: functional, K-12 substr. MG1655
Escherichia coli [12] = assay: Antibacterial activity against Escherichia coli MG1655 harboring pRecA-lux assessed as maximum induction factor at 10^-8 M after 120 mins by luminometric analysis; format: functional, K-12 substr. MG1655
Escherichia coli [13] = assay: Antibacterial activity against Escherichia coli MG1655 harboring pColD-lux assessed as maximum induction factor at 10^-6 M after 120 mins by luminometric analysis; format: functional, K-12 substr. MG1655
Escherichia coli [14] = assay: Antibacterial activity against Escherichia coli MG1655 harboring pIbpA-lux assessed as maximum induction factor at 10^-11 M after 120 mins by luminometric analysis; format: functional, K-12 substr. MG1655
Escherichia coli [15] = assay: Antibacterial activity against Escherichia coli MG1655 harboring pKatG-lux assessed as maximum induction factor at 10^-6 M after 120 mins by luminometric analysis; format: functional, K-12 substr. MG1655
Escherichia coli [16] = assay: Antibacterial activity against Escherichia coli MG1655 harboring pXen7 assessed as toxicity index at 10^-11 M measured for 2 hrs by luminometric analysis; format: functional, K-12 substr. MG1655
Vibrio sp. [17] = assay: Antibacterial activity against Vibrio aqamarinus VKPM B-11245 assessed as toxicity index at 10^-14 M measured for 2 hrs by luminometric analysis; format: functional
[18] = Activation of quorum sensing system luxR in Escherichia coli MG1655 harboring pVFR1-lux assessed as maximum induction factor at 10^-12 M after 120 mins by luminometric analysis; settings: Escherichia coli str. K-12 substr. MG1655
Escherichia coli [19] = assay: Antibacterial activity against Escherichia coli MG1655 harboring pRecA-lux assessed as maximum induction factor at 10^-4 M after 120 mins by luminometric analysis; format: functional, K-12 substr. MG1655
Escherichia coli [20] = assay: Antibacterial activity against Escherichia coli MG1655 harboring pXen7 assessed as toxicity index at 10^-14 M measured for 2 hrs by luminometric analysis; format: functional, K-12 substr. MG1655
Escherichia coli [21] = assay: Antibacterial activity against Escherichia coli MG1655 harboring pColD-lux assessed as maximum induction factor at 10^-8 M after 120 mins by luminometric analysis; format: functional, K-12 substr. MG1655
Vibrio sp. [22] = assay: Antibacterial activity against Vibrio aqamarinus VKPM B-11245 assessed as toxicity index at 10^-5 M measured for 2 hrs by luminometric analysis; format: functional
[23] = Activation of quorum sensing system luxR in Escherichia coli MG1655 harboring pVFR1-lux assessed as maximum induction factor at 10^-14 M after 120 mins by luminometric analysis; settings: Escherichia coli str. K-12 substr. MG1655
Escherichia coli [24] = assay: Antibacterial activity against Escherichia coli MG1655 harboring pXen7 assessed as toxicity index at 10^-4 M measured for 2 hrs by luminometric analysis; format: functional, K-12 substr. MG1655
Escherichia coli [25] = assay: Antibacterial activity against Escherichia coli MG1655 harboring pSoxS-lux assessed as maximum induction factor at 10^-4 M after 120 mins by luminometric analysis; format: functional, K-12 substr. MG1655
Escherichia coli [26] = assay: Antibacterial activity against Escherichia coli MG1655 harboring pSoxS-lux assessed as maximum induction factor at 10^-11 M after 120 mins by luminometric analysis; format: functional, K-12 substr. MG1655
Escherichia coli [27] = assay: Antibacterial activity against Escherichia coli MG1655 harboring pKatG-lux assessed as maximum induction factor at 10^-10 M after 120 mins by luminometric analysis; format: functional, K-12 substr. MG1655
Escherichia coli [28] = assay: Antibacterial activity against Escherichia coli MG1655 harboring pGrpE-lux assessed as maximum induction factor at 10^-13 M after 120 mins by luminometric analysis; format: functional, K-12 substr. MG1655
Escherichia coli [29] = assay: Antibacterial activity against Escherichia coli MG1655 harboring pXen7 assessed as toxicity index at 10^-6 M measured for 2 hrs by luminometric analysis; format: functional, K-12 substr. MG1655

For O=[N+]([O-])c1cc([N+](=O)[O-])c2no[n+]([O-])c2c1Sc1nc2ccccc2s1, the Activity (Escherichia coli [1]) was 1, the Activity (Escherichia coli [2]) was 1.25 and the Activity [3] was 1.64. It also gave an Activity [4] of 3.59, an Activity (Escherichia coli [5]) of 1.2 and an Activity (Escherichia coli [6]) of 1.08. It also gave an Activity (Escherichia coli [7]) of 0.87, an Activity (Escherichia coli [8]) of 1.05 and an Activity (Escherichia coli [9]) of 7.28. It also gave an Activity (Escherichia coli [10]) of 0.84, an Activity (Escherichia coli [11]) of 1.48 and an Activity (Escherichia coli [12]) of 0.99. The Activity (Escherichia coli [13]) was 1.04, the Activity (Escherichia coli [14]) was 1.47 and the Activity (Escherichia coli [15]) was 0.8. It also gave an Activity (Escherichia coli [16]) of 0, an Activity (Vibrio sp. [17]) of 5.94 and an Activity [18] of 2.96. It also gave an Activity (Escherichia coli [19]) of 0.85, an Activity (Escherichia coli [20]) of 2.74 and an Activity (Escherichia coli [21]) of 1.08. It also gave an Activity (Vibrio sp. [22]) of 98.83, an Activity [23] of 2.87 and an Activity (Escherichia coli [24]) of 98. It also gave an Activity (Escherichia coli [25]) of 2.71, an Activity (Escherichia coli [26]) of 0.99 and an Activity (Escherichia coli [27]) of 1.02. The Activity (Escherichia coli [28]) was 0.96 and the Activity (Escherichia coli [29]) was 10.3.

Reference: ChEMBL document CHEMBL3407459, “Synthesis and antimicrobial activity of novel structural hybrids of benzofuroxan and benzothiazole derivatives” (2015)
